{"source": "patent US4514403A", "about": "“Hydrouracil compounds” (Yoshitomi Pharmaceutical Industries Ltd., priority 1980, dated 1985)", "key": {"central nervous system": {"tested_on": "central nervous system", "experiment": "Activity on central nervous system", "details": "in vivo"}, "Hot plate test": {"experiment": "Hot plate test", "details": "Rattus norvegicus, sc, read-out: Hot Plate Test ED50"}, "Electric stimuli test": {"experiment": "Electric stimuli test", "details": "Mus musculus, read-out: Electric Stimuli Test ED50"}, "[1]": {"details": "rat, in vivo"}, "[2]": {"experiment": "Bradykinin nociception test", "details": "for ED50: Rattus norvegicus, read-out: Bradykinin Nociception Test ED50"}, "[3]": {"details": "rat, in vivo", "remark": "listed apart in the source"}, "Tolerance test": {"experiment": "Tolerance test", "assay_type": "in vivo", "details": "continuous administration"}, "[4]": {"experiment": "Antagonism by levallorphan in electric stimuli test", "details": "electric stimuli test in mice; levallorphan (narcotic antagonist)"}, "[5]": {"experiment": "Tooth pulp nociception test"}, "[6]": {"tested_on": "evoked potentials in central nervous system", "experiment": "Effect on the various evoked potentials in central nervous system", "assay_type": "in vivo, Male Wistar rats", "set-up": "key to Amplitude of Evoked Responses, VP-COR / Amplitude of Evoked Responses, HIP-AMY / Amplitude of Evoked Responses, HIP-SEP: -: No change; --: No change; (+): Levallorphan antagonism; (-): Levallorphan antagonism", "experimental": "Male Wistar rats, weighing 300-350 g, were used under ethyl ether anesthesia. The trachea and femoral vein were cannulated for artificial respiration and drug injection, respectively. Immobilization of the rat was maintained by gallamine thioethiodide (10 mg/kg) given intravenously every one hours. All wound edges were infiltration with carbocaine hydrochloride. The experiments began after at least 2 hours had elapsed from discontinuance of ether anesthesia. The COR (somatosensory cortex) evoked potentials by VP (neucleus ventralis posterior thalamus) stimulation (VP - COR evoked potential) were recorded from somatosensory cortex, through a silver electrode applied directly to the cortex. In order to record VP and MRF (midbrain reticular formation) evoked potentials by sciatic nerve stimulation or AMY (amygdala) and SEP (septum) evoked potentials by HIP (hippocampus) stimulation, bipolar stainless steel electrodes were stereotaxically placed into the VP, MRF, AMY, SEP and HIP. The stimuli were delivered to various sites every 2 seconds from a stimulation and consisted of 0.1 msec rectangular pulses (twice threshold intensity). The evoked responses were visualized on an oscilloscope. All records were made up of 20 superimposed tracings."}, "[7]": {"experiment": "Phenylquinone writhing test", "details": "for ED50: Mus musculus, read-out: Phenylquinone Writhing Test ED50"}, "Mouse jumping test": {"experiment": "Mouse jumping test", "details": "administration at a lethal dose"}, "in vivo": {"experiment": "in vivo", "details": "rat"}, "[8]": {"experiment": "Analgesic activity (overall)"}, "[9]": {"details": "calculated from inhibition (%) in a low dose"}}, "note": "Counter-ions that a name gives are not always drawn.", "data": [{"smiles": "CN1C(=O)CCN(C2CCN(CC=Cc3ccccc3)CC2)C1=O", "note": "[Test compound A, 1-(1-cinnamyl-4-piperidyl)-3-methyl-hydrouracil hydrochloride]", "values": [{"measurement": "muscle relaxant activity", "setting": "central nervous system", "value": "weak"}, {"measurement": "reserpine potentiating activity", "setting": "central nervous system", "value": "weak"}, {"measurement": "suppression of spontaneous locomotor activity", "setting": "central nervous system", "value": "weak"}, {"measurement": "ED50", "setting": "Hot plate test", "value": 10, "unit": "mg/kg"}, {"measurement": "ED50", "setting": "Electric stimuli test; po", "value": 200, "unit": "mg/kg"}, {"measurement": "ED50", "setting": "Electric stimuli test; sc", "value": 23, "unit": "mg/kg"}, {"measurement": "body weight reduction", "setting": "[1]", "value": "not reduced"}, {"measurement": "ED50", "setting": "[2]; po", "value": 40, "unit": "mg/kg"}, {"measurement": "ED50", "setting": "[2]; sc", "value": 4, "unit": "mg/kg"}, {"measurement": "Relative potency (Test compound A = 1), Bradykinin Nociception Test", "setting": "[2]; calculated from ED50", "value": 1}, {"measurement": "Relative potency (Test compound A = 1), Bradykinin Nociception Test", "setting": "[2]; [9]", "value": 1}, {"measurement": "Inhibition (%) of Occurrence of Pain", "setting": "[2]; rats, 2.5 mg/kg s.c.", "value": 38, "unit": "%"}, {"measurement": "compensatory adjustment against codeine", "setting": "[3]", "value": "had not compensatory adjustment against codeine"}, {"measurement": "cross tolerance against codeine", "setting": "Tolerance test", "value": "did not show a cross tolerance against codeine"}, {"measurement": "tolerance (decrease of effects)", "setting": "Tolerance test", "value": "did not cause a significant decrease of effects"}, {"measurement": "Influence of levallorphan on analgesic activity", "setting": "[4]", "value": "did not influence the analgesic activity"}, {"measurement": "Relative potency (Test compound A = 1), Tooth Pulp Nociception Test", "setting": "[5]; calculated from ED50", "value": 1}, {"measurement": "Relative potency (Test compound A = 1), Tooth Pulp Nociception Test", "setting": "[5]; [9]", "value": 1}, {"measurement": "increasing rate in threshold", "setting": "[5]; rabbits, 2.5 mg/kg i.v.", "value": 75, "unit": "%"}, {"measurement": "levallorphan antagonism of VP - COR response", "setting": "[6]", "value": "levallorphan did not antagonize the response"}, {"measurement": "Amplitude of Evoked Responses, HIP-AMY", "setting": "[6]; 5 mg/kg i.v.", "value": "--"}, {"measurement": "Amplitude of Evoked Responses, HIP-SEP", "setting": "[6]; 5 mg/kg i.v.", "value": "--"}, {"measurement": "Amplitude of Evoked Responses, VP-COR", "setting": "[6]; 5 mg/kg i.v.", "value": "--"}, {"measurement": "Amplitude of Evoked Responses, HIP-AMY", "setting": "[6]; 10 mg/kg i.v.", "value": "--"}, {"measurement": "Amplitude of Evoked Responses, HIP-SEP", "setting": "[6]; 10 mg/kg i.v.", "value": "--"}, {"measurement": "Amplitude of Evoked Responses, HIP-AMY", "setting": "[6]; 25 mg/kg i.v.", "value": "--"}, {"measurement": "Amplitude of Evoked Responses, HIP-SEP", "setting": "[6]; 25 mg/kg i.v.", "value": "--"}, {"measurement": "HIP - AMY evoked potential", "setting": "[6]; i.v.", "value": "no effect"}, {"measurement": "HIP - SEP evoked potential", "setting": "[6]; i.v.", "value": "no effect"}, {"measurement": "amplitude of the VP - COR evoked potential", "setting": "[6]; i.v.", "value": "reduced the amplitude of the VP - COR evoked potential"}, {"measurement": "ED50", "setting": "[7]; po", "value": 17, "unit": "mg/kg"}, {"measurement": "ED50", "setting": "[7]; sc", "value": 1, "unit": "mg/kg"}, {"measurement": "Relative potency (Test compound A = 1), Phenylquinone Writhing Test", "setting": "[7]; calculated from ED50", "value": 1}, {"measurement": "Relative potency (Test compound A = 1), Phenylquinone Writhing Test", "setting": "[7]; [9]", "value": 1}, {"measurement": "Inhibition (%) of Occurrence of Pain", "setting": "[7]; mice, 0.5 mg/kg s.c.", "value": 48, "unit": "%"}, {"measurement": "ED50", "setting": "AgNO3 arthritis test; Rattus norvegicus, sc, read-out: AgNO3 Arthritis Test ED50", "value": 7, "unit": "mg/kg"}, {"measurement": "Relative potency (Test compound A = 1), AgNO3 Arthritis Test", "setting": "AgNO3 arthritis test; calculated from ED50", "value": 1}, {"measurement": "Relative potency (Test compound A = 1), AgNO3 Arthritis Test", "setting": "AgNO3 arthritis test; [9]", "value": 1}, {"measurement": "Inhibition (%) of Occurrence of Pain", "setting": "AgNO3 arthritis test; rats, 5 mg/kg s.c.", "value": 42, "unit": "%"}, {"measurement": "jumping symptom", "setting": "Mouse jumping test", "value": "did not cause any jumping symptom"}, {"measurement": "LD50", "setting": "in vivo; ip", "value": 150, "unit": "mg/kg"}, {"measurement": "LD50", "setting": "in vivo; po", "value": 450, "unit": "mg/kg"}, {"measurement": "LD50", "setting": "in vivo; sc", "value": 300, "unit": "mg/kg"}, {"measurement": "analgesic activity in a low dose", "setting": "[8]", "value": "stronger than tramadol and pentazocine"}]}]}
